From patent US9497963B2, “Methods and compositions for control of gypsy moth, Lymantria dispar” (Simon Fraser University, priority 2008, dated 2016)

Experiments:
[1] = system: male gypsy moth antenna response to pheromone (+)-1; test: EAG short-term (STI) and long-term (LTI) inhibition of pheromone signaling (Example 5); set-up: species or system Lymantria dispar; conditions: for inhibition at 0.001 mg / inhibition at 0.01 mg / inhibition at 0.1 mg / inhibition at 100 µg, 0.1 mg: Lymantria dispar, mean ± S.E.; for inhibition at 0.001 mg: mixed plume (+)-1 100 ng + compound 1 μg; for inhibition at 0.001 mg / inhibition at 0.01 mg / inhibition at 0.1 mg: negative = enhancement, read-out: Activity (%): short-term inhibition (STI); for inhibition at 0.01 mg: mixed plume (+)-1 100 ng + compound 10 μg; for inhibition at 0.1 mg: mixed plume (+)-1 100 ng + compound 100 μg (puff v); for inhibition at 100 µg, 0.1 mg: pure (+)-1 100 ng plume following mixed plume with 100 μg compound, read-out: Activity (%): long-term inhibition (LTI)
Protocol: The puffs are numbered i-vi and were: i=air, ii=pure pheromone (+)-disparlure, (+)-1, (100 ng), iii-v=disparlure mixed with the test compound, the latter at three different doses, vi=pure (+)-1. Depolarizations from the resting potential are labeled d; hyperpolarizations seen during the recovery phase after a puff are labeled r. Subscripts refer to the puff number. FIG. 5A. Typical trace for compound 3c{2,3}. FIG. 5B. Typical trace for compound 3a{4,4}.
For other compounds, EAG traces were recorded as follows: a fully dislodged antenna from a male gypsy moth was mounted on the end of a reference electrode (a glass capillary with a silver wire, filled with buffered saline: 5 mM NaH2PO4, 10 mM Na2SO4, 4.5 mM KHCO3, 18 mM MgCl2, 4 mM CaCl2, 6 mM KCl, the pH is adjusted to 6.8 using 5 mM Na2HPO4). The tip of the antenna was severed with microscissors and placed in the recording electrode, which was mounted on a micromanipulator. A constant stream of air, that had been purified (charcoal filter), was blown over the antenna at a rate of 300 mL/min. Test samples were delivered through a stimulus delivery tube with a side opening 2 cm from the distal opening. The proximal end of the delivery tube was connected to a controlled stimulus delivery apparatus (Stimulus controller CS-05 Syntech Research and Equipment, NL 1200BM, Hilversum, The Netherlands). The distal end of the delivery tube pointed at the antenna (1 cm from the antenna). The side opening was connected to a cartridge fashioned from a Pasteur pipette which contained a small filter paper (Whatman No. 1) with the stimulus. These pipette cartridges could be prepared a few days in advance and stored at −80° C. wrapped in Al foil and in sealable plastic bags. Sample cartridges were mounted once they had reached room temperature. The stimulus delivery apparatus delivered a second stream of air (a puff) through the Pasteur pipette at a velocity of 600 mL/min, at a specified point in time, for 0.3 s. Receptor potentials of the antennae in response to test stimuli were recorded with a Syntech IDAC probe, amplifier and interfaced board, and were analyzed with EAG Syntech Software Version 2.4 (1996). See FIG. 4 for a representative EAG trace. The EAG traces were evaluated as follows (see FIG. 5).
The net depolarizations, d(net) (in mV), of puffs ii-vi,d(sample), (corrected for the depolarization with clean air, d(air)) d(net)=d(sample)−d(air) (Eq. 1)
The percentage short-term inhibition for each compound (STI(compound)) of puffs iii-v, relative to the first pure pheromone puff (ii) STI(compound)=100×(d(net)(ii)−d(net)(compound))/d(net)(ii) (Eq. 2)
c) the percentage long-term inhibition for each compound (LTI(compound)) of the pure pheromone puff that followed the last mixed puff (vi) relative to the first pure pheromone puff (ii) LTI(compound)=100×(d(net)(ii)−d(net)(vi))/d(net)(ii) (Eq. 3)
The compounds we tested gave weak or no olfactory responses by themselves in electroantennogram (EAG) experiments. The EAG trace reflects the change in the potential across the antenna when an air puff with an odorant is passed over the antenna. To understand the agonistic or antagonistic effect of the compounds on pheromone responses by male moth antennae, four types of EAG experiment were conducted. First, the response of the antenna elicited by a stimulus of pure (+)-1 was compared to the responses elicited by blends of (+)-1 with the test compound (FIG. 5). […] This effect was termed short-term inhibition (STI). […] Second, the time decay and dose responses for LTI activities were studied. Third, the strongest inhibitors were tested for their ability to cause LTI by themselves.
This experiment explored the agonistic or antagonistic activity of the synthetic aromatic compounds (Scheme 1 and eugenol and alkyl eugenols) with the gypsy moth pheromone (+)-1. […]

male gypsy moth antenna = test: Coupled gas chromatographic-electroantennographic detection (GC-EAD); set-up: species or system Lymantria dispar
From the text: In GC-EAD assays, the analyte is processed by gas chromatography (GC). The column effluent is split, such that molecules of each chromatographic peak arrive simultaneously at the flame ionization detector of the GC and at an anectomized but otherwise intact insect antenna as the biological detector. This procedure detects specific compounds in the analyte that elicit an electrical potential from the antenna.
For GC-EAD recordings, an antenna was carefully dislodged from a male moth's head, and the antennal base placed into the opening of a glass capillary electrode (0.58 mm ID×65 mm length) (A-M Systems, Inc., Carlsborg, Wash., USA) filled with saline solution. The tip of the antenna was removed by spring microscissors (Fine Science Tools Inc., North Vancouver, British Columbia, Canada) and then placed into the opening of the recording electrode mounted on a portable micromanipulator and positioned in front of a constant stream of warm air (Praxair Canada Inc., Mississauga, Ontario, Canada) which delivered the GC column eluent. […] Identical retention times of compounds detected by the flame ionization detector of the GC and by the insect antenna allowed assignment of antennal responses to specific compounds in the eluent.

[2] = EAD peak size and shape (sharp/broad)
[3] = male gypsy moth antenna, starting phenols 4, diethers 5 and dihydropyrans 6c from Claisen rearrangement chemistry

Structure (SMILES)	inhibition at 0.001 mg [1]	inhibition at 0.01 mg [1]	inhibition at 0.1 mg [1]	inhibition at 100 µg, 0.1 mg [1]	GC-EAD activity (male gypsy moth antenna; [2])	long-term inhibition (LTI) activity (in words) [1]	short-term effect on antennal pheromone response (in words) [1]	GC-EAD activity (male gypsy moth antenna; [3])
C=CCOc1cccc(OC)c1 [3b{1,6}, 1-allyloxy-3-methoxybenzene]	-67 ± 61%	-107 ± 88%	-95 ± 106%	14 ± 13%	None	–	–	–
CC(C)CCOc1cccc(O)c1 [2b{5}, 3-(3-Methyl-butyloxy) phenol]	-87 ± 63%	-111 ± 78%	-9 ± 58%	4 ± 7%	None	–	–	–
C=CCOc1ccc(OCCC)cc1 [3c{3,6}, 1-allyloxy-4-propoxybenzene]	-57 ± 46%	-114 ± 51%	-168 ± 76%	39 ± 15%	+ broad	–	–	–
C=CCOc1cccc(OCCC)c1 [3b{3,6}, 1-allyloxy-3-propoxybenzene]	-85 ± 30%	-85 ± 80%	-96 ± 98%	48 ± 7%	None	most active long-term inhibitor	–	–
CC(C)CCOc1cccc(OCCC(C)C)c1 [3b{5,5}, 1,3-Di-(3-methyl-butyloxy) benzene]	41 ± 13%	-38 ± 41%	-51 ± 51%	9 ± 9%	None	–	–	–
COc1cccc(O)c1 [2b{1}, 3-Methoxy phenol]	6 ± 11%	14 ± 22%	49 ± 8%	4 ± 7%	None	–	–	–
CCOc1cccc(OCC)c1 [3b{2,2}, 1,3-Diethoxy benzene]	-100 ± 51%	-12 ± 70%	63 ± 65%	39 ± 6%	Trace	–	–	–
COc1cccc(OC)c1 [3b{1,1}, 1,3-Dimethoxy benzene]	25 ± 18%	9 ± 40%	44 ± 36%	1 ± 8%	Trace	–	–	–
CC(C)CCOc1ccccc1OCCC(C)C [3a{5,5}, 1,2-Di-(3-methyl-butyloxy) benzene]	-77 ± 58%	-55 ± 67%	-105 ± 81%	0%	None	–	–	–
C=CCc1ccc(OCC)c(OC)c1 [Et eugenol]	3 ± 27%	19 ± 18%	-121 ± 15%	20 ± 3%	None	–	–	–
C=CCOc1ccccc1OCC=C [3a{6,6}, 1,2-Diallyloxy benzene]	32 ± 16%	16 ± 24%	-27 ± 48%	17 ± 28%	None	–	–	–
CC(C)CCOc1ccccc1O [2a{5}, 2-(3-Methyl-butyloxy) phenol]	22 ± 8%	-44 ± 26%	-37 ± 33%	6 ± 6%	None	–	slightly agonistic	–
C=CCOc1ccc(OCC=C)cc1 [3c{6,6}, 1,4-Diallyloxy benzene]	-6 ± 10%	45 ± 6%	41 ± 8%	4 ± 6%	Trace	–	–	–
CCCOc1ccccc1O [2a{3}, 2-Propoxy phenol]	-26 ± 14%	32 ± 9%	46 ± 13%	18 ± 5%	None	–	–	–
C=CCOc1ccccc1O [2a{6}, 2-Allyloxy phenol]	-63 ± 62%	-33 ± 40%	-31 ± 71%	16 ± 8%	None	–	–	–
C=CCc1cccc(OC)c1OCCC(C)C [5a{5, 1}]	–	–	–	–	–	–	–	Trace
C=CCc1cccc(OCCC)c1O [4a{3}, 2-allyl-6-propoxy phenol]	–	–	–	–	–	–	–	+ broad
CCCOc1cccc(O)c1 [2b{3}, 3-Propoxy phenol]	-6 ± 14%	36 ± 19%	65 ± 14%	8 ± 6%	None	–	–	–

Structure (SMILES)	inhibition at 0.001 mg [1]	inhibition at 0.01 mg [1]	inhibition at 0.1 mg [1]	inhibition at 100 µg, 0.1 mg [1]	GC-EAD activity (male gypsy moth antenna; [2])	long-term inhibition (LTI) activity (in words) [1]	short-term effect on antennal pheromone response (in words) [1]	GC-EAD activity (male gypsy moth antenna; [3])
CCCCOc1cccc(OCCC(C)C)c1 [3b{4,5}, 1-butoxy-3-(3-methyl-butyloxy) benzene]	–	–	–	–	None	–	–	–
COc1cccc(OCCC(C)C)c1 [3b{1,5}, 1-methoxy-3-(3-methyl-butyloxy) benzene]	–	–	–	–	None	–	–	–
CCOc1ccc2c(c1)CC(C)O2 (stereo not drawn) [6c{2}, 5-ethoxy-2-methyl-2,3-dihydro benzofuran]	–	–	–	–	–	–	–	Trace
C=CCc1cccc(OCC)c1OCCC(C)C [5a{5, 2}]	–	–	–	–	–	–	–	None
C=CCOc1ccc(OCC)cc1 [3c{2,6}, 1-allyloxy-4-ethoxybenzene]	–	–	–	–	Trace	–	–	–
CCCOc1ccccc1OCC [3a{2,3}, 1-ethoxy-2-propoxy benzene]	–	–	–	–	+ sharp	–	–	–
C=CCOc1cccc(CC=C)c1OCCC(C)C [5a{5, 6}]	–	–	–	–	–	–	–	None
CCOc1ccccc1OC [3a{1,2}, 1-ethoxy-2-methoxy benzene]	–	–	–	–	++ sharp	–	–	–
C=CCc1cccc(OC)c1OCCCC [5a{4, 1}]	–	–	–	–	–	–	–	None
C=CCc1cc(OCCC)ccc1O [4c{3}, 2-allyl-4-propoxy phenol]	–	–	–	–	–	–	–	Trace
C=CCOc1ccc(OC)cc1 [3c{1,6}, 1-allyloxy-4-methoxybenzene]	–	–	–	–	Trace	–	–	–
CCOc1cccc(OC)c1 [3b{1,2}, 1-ethoxy-3-methoxy benzene]	–	–	–	–	Trace	–	–	–
CCCCOc1ccccc1OC [3a{1,4}, 1-butoxy-2-methoxy benzene]	–	–	–	–	Trace	–	–	–
CCOc1cccc(OCCC(C)C)c1 [3b{2,5}, 1-ethoxy-3-(3-methyl-butyloxy) benzene]	–	–	–	–	None	–	–	–
C=CCOc1ccccc1OCCC(C)C [3a{5,6}, 1-allyloxy-2-isopentoxybenzene]	–	–	–	–	+ broad	–	–	–
CCCCOc1ccccc1OCCC(C)C [3a{4,5}, 1-butoxy-2-(3-methyl-butoxy) benzene]	–	–	–	–	+ broad	–	–	–
C=CCc1cccc(OCCC)c1OCCCC [5a{4, 3}]	–	–	–	–	–	–	–	None
C=CCc1cccc(OCCCC)c1O [4a{4}, 2-allyl-6-butoxy phenol]	–	–	–	–	–	–	–	Trace
